Experimental data published in PMC11425824 (ACS Omega, 2024).
Values belong to the compound of their own block, whether it stands above or below them.

What was measured:
[1] = system: primary hepatocytes; settings: cited from earlier work
[2] = molecular target: CDK1 (Homo sapiens, UniProt P06493); experiment: In vitro CDK1 kinase assay; format: biochemical
[3] = cited from earlier work
[4] = cited from earlier work; remark: listed apart in the source

Sequence of CDK1 (P20248 whole entry): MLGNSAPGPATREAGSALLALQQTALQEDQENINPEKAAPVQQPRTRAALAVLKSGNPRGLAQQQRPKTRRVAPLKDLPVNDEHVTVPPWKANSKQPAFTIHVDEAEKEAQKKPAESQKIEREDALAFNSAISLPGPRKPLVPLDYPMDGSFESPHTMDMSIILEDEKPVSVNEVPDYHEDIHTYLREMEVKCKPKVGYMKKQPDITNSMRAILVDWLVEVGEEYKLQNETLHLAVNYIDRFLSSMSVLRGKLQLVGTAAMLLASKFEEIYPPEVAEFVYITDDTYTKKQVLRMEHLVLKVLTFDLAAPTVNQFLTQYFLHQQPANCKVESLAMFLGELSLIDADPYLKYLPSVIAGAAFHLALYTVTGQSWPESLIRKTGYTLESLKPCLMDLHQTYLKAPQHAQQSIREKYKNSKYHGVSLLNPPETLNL
Sequence of CDK1 (P06493 whole entry): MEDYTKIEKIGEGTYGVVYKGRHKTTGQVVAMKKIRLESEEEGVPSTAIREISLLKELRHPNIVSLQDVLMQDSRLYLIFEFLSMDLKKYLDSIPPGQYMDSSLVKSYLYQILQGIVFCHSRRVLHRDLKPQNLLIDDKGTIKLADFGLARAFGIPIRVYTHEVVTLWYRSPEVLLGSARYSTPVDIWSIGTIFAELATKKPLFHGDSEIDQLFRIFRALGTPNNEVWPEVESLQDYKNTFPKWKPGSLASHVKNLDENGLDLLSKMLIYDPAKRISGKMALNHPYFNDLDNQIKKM

IC50 [2]: 4.37 µM
SMILES: CCO[C@@H](Cc1ccc(OCCc2ccc(OS(C)(=O)=O)cc2)cc1)C(=O)O [DB_6, tesaglitazar]
Toxicity to primary hepatocytes [1]: no significant toxicity

CDK1 activity ([2]; 1 μM): around 20% | CDK1 inhibition ([2]; higher concentrations (10 and 100 μM)): 100%
SMILES: O=C1NC(=NCc2cccs2)S/C1=C\c1ccc2ncccc2c1 [RO-3306]
Clearance from the blood plasma [3]: rapid clearance

IC50 [2]: 5.94 µM
SMILES: Cc1cc2cc(Oc3ccnc(Nc4cccc(CS(=O)(=O)NCCN(C)C)c4)n3)ccc2[nH]1 [DB_7, Surufatinib]

SMILES: CC(C)OC(=O)[C@H](C)N[P@](=O)(CO[C@H](C)Cn1cnc2c(N)ncnc21)Oc1ccccc1 [DB_1, tenofovir alafenamide]
Cytotoxicity profile [4]: minimal cytotoxic effects | Mitochondrial toxicity [4]: low potential for mitochondrial toxicity | IC50 [2]: 2.82 µM
